According to US20220220135A1 (BAR-ILAN UNIVERSITY, priority 2019, published 2022):

Tests used:
[1] = Stability to air-oxidation by 31P-NMR; assay type: physicochemical; settings: aqueous solution, constant air flow, RT, 3 weeks
From the text: To evaluate the chemical stability of uridine-5′-Pα,α-dithiophosphate analogues, we measured by 31P-NMR the time-dependent percentage of the analogues remaining under basic and acidic conditions, and due to air-oxidation.
An aqueous solution of 10 was subjected to a constant air flow.

P2Y6R = P2Y6R (Homo sapiens, UniProt Q15077); assay: P2Y6R agonist activity, inositol-1-phosphate (IP1) accumulation; assay type: cell-based; set-up: expressed in transfected cells; host or cells: AD293 cells; settings: vs. UDP
Chain of P2Y6R (Q15077 whole entry): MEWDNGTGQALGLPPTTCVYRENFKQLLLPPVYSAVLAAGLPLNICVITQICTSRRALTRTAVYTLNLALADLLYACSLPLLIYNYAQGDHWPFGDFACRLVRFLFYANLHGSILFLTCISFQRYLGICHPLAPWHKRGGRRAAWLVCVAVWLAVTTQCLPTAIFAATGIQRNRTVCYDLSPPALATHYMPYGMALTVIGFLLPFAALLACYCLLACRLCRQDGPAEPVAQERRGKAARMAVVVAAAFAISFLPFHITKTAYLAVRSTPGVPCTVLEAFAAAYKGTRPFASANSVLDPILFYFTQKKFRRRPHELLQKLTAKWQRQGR
From the text: FIG. 3: P2Y6R agonist activity of analogues 9-12 vs. UDP determined by measuring the production of inositol-1-phosphate (IP1);

NPP1 = biological target: T1, NPP1 (Homo sapiens, UniProt P22413); assay: Stability to hydrolysis by human NPP1; assay type: in vitro ADME; settings: analogue 100 μM; activity with 100 μM ATP = 100%
T1 sequence (P22413 1-925): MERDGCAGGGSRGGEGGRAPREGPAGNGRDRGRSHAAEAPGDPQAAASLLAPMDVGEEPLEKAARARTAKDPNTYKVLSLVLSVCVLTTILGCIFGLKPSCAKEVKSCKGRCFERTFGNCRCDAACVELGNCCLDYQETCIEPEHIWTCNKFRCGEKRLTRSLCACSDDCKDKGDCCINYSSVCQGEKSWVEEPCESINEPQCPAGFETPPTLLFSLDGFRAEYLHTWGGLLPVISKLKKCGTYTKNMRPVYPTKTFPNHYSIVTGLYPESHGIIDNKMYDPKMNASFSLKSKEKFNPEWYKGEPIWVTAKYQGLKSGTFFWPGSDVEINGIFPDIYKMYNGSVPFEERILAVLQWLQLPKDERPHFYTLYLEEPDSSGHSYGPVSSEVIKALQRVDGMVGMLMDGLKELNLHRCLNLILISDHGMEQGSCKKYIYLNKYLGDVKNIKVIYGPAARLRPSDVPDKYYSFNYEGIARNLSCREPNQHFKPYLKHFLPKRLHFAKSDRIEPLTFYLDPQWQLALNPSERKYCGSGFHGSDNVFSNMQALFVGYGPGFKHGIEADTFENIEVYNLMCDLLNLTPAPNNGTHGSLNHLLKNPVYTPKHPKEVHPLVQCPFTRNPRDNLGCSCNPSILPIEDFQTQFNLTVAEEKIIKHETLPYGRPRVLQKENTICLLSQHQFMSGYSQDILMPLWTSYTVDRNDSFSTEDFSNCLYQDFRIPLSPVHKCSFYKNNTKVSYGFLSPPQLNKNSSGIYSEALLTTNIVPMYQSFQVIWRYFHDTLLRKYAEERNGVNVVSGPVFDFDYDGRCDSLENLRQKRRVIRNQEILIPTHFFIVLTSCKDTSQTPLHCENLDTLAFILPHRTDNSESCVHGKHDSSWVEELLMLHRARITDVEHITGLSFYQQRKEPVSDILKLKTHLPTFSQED
Protocol: Uridine 5′-Pα,α-phosphorodithioate analogues, 9-12, were tested for their stability to degradation by NPP1 and NTPDases. These enzymes are involved in the metabolism of extracellular nucleotides. Analogues 9-12 were not hydrolyzed by hNPP1 (Table 2). […] Analogue 10 was hydrolyzed by hNTPDase1, -2 and -3 at 30-39% the rate of ATP and was slightly hydrolyzed by human NTPDase8 at 16% the rate of ATP.
Analogues 9-12 were incubated in the presence of the indicated ectonucleotidase at a concentration of 100 μM. The activity with 100 μM ATP was set as 100%, which was 329±108, 302±34, 263±51, 195±76 nmol of Pi·min−1·mg of protein−1 for NTPDase1, -2, -3 and -8, respectively, and 34±7 nmol for NPP1. Data presented are the mean±SEM of results from two experiments.

NTPDase2 = biological target: T2, NTPDase2 (Homo sapiens, UniProt Q9Y5L3); assay: Inhibition of ATPase activity of human NTPDase2; assay type: biochemical; settings: analogue at 100 μM; ATP 100 μM as substrate
T2 sequence (Q9Y5L3 1-495): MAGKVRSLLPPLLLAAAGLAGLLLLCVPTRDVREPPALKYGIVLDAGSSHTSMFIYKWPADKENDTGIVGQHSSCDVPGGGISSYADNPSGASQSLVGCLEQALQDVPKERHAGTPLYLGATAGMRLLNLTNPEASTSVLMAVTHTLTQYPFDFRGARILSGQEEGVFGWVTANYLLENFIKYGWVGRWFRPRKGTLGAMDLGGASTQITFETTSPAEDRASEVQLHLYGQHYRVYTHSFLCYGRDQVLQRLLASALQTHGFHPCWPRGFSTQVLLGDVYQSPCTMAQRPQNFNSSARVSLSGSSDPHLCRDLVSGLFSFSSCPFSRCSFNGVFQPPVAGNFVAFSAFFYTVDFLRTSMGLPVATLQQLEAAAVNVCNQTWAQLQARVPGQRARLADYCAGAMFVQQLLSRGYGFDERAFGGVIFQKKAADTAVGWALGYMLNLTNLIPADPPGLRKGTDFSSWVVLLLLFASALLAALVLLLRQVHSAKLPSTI
Protocol: FIG. 2: Inhibition of NTPDases and NPPs by analogues 9-12 using as substrates ATP (100 μM) for NTPDase1,2,3,8 and pNP-TMP (100 μM) for NPP1,3 (Panel A); and ATP (100 μM) was used as the substrate for NPP1 (Panel B);
At least 2 independent experiments were performed. In panel A, the activity with 100 μM ATP was set as 100%, which was 287±31, 395±67, 278±22, 119±26 nmol of Pi·min−1·mg of protein−1 for human NTPDase1, -2, -3 and -8, respectively, and the activity with 100 μM pNP-TMP was set as 100% which was 67±5, 21±1 nmol of p-nitrophenol·min−1·mg of protein−1 for human NPP1 and NPP3, respectively. In panel B, the activity with 100 μM ATP was set as 100% which was 34±7 nmol of PPi·min−1·mg of protein−1 for NPP1.

Row | Compound | stability to air-oxidation [1] | P2Y6-R agonist activity (IP1 accumulation) (P2Y6R) | Relative activity (%) ± SEM of ATP hydrolysis, NPP1 (NPP1) [%] | inhibition of human NTPDase2 (NTPDase2)
1 | O=c1ccn([C@@H]2O[C@H](COP(=S)(S)OP(=O)(O)OP(=O)(O)O)[C@@H](O)[C@H]2O)c(=O)[nH]1 (stereo partly drawn) [Analogue 10] | no new signals | limited agonist activities | 0 | no inhibition
2 | O=c1ccn([C@@H]2O[C@H](COP(=S)(S)OP(=O)(O)CP(=O)(O)O)[C@@H](O)[C@H]2O)c(=O)[nH]1 (stereo partly drawn) [Analogue 11] | complete stability | devoid of any P2Y6—R activity | 0 | negligible effects
3 | O=c1ccn([C@@H]2O[C@H](COP(=S)(S)OP(=O)(O)OP(=O)(O)OP(=S)(S)OC[C@H]3O[C@@H](n4ccc(=O)[nH]c4=O)[C@H](O)[C@@H]3O)[C@@H](O)[C@H]2O)c(=O)[nH]1 (stereo partly drawn) [Analogue 12] | completely resistant | limited agonist activities | 0 | selective to NPP1
